From publication PMC11864979, “First-in-class ultralong-target-residence-time p38α inhibitors as a mitosis-targeted therapy for colorectal cancer” (Nature Cancer, 2025)
Read-outs that look alike come from different tables or passages of the source.

Tests used:
Test in all cases: selectivity profiling in a panel of 340 wild-type kinases (Reaction Biology Europe)
Assay type in all cases: binding
340 wild-type kinases [1] = target: T1, 340 wild-type kinases (Homo sapiens, UniProt Q9HBY8)
T1 construct: purchased Reaction Biology Europe
T1 sequence (Q9HBY8 1-367): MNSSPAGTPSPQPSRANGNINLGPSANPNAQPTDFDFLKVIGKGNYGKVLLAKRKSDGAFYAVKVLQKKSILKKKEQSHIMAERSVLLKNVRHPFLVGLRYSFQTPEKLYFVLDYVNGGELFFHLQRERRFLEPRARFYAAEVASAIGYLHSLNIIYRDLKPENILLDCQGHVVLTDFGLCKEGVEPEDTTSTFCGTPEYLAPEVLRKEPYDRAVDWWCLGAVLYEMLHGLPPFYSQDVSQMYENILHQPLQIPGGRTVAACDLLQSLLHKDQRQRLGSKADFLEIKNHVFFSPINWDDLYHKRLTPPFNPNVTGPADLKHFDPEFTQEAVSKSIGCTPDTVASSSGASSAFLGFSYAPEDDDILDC

340 wild-type kinases [2] = target: T2, 340 wild-type kinases (Homo sapiens, UniProt P29323)
T2 construct: purchased Reaction Biology Europe
T2 sequence (P29323 19-1055): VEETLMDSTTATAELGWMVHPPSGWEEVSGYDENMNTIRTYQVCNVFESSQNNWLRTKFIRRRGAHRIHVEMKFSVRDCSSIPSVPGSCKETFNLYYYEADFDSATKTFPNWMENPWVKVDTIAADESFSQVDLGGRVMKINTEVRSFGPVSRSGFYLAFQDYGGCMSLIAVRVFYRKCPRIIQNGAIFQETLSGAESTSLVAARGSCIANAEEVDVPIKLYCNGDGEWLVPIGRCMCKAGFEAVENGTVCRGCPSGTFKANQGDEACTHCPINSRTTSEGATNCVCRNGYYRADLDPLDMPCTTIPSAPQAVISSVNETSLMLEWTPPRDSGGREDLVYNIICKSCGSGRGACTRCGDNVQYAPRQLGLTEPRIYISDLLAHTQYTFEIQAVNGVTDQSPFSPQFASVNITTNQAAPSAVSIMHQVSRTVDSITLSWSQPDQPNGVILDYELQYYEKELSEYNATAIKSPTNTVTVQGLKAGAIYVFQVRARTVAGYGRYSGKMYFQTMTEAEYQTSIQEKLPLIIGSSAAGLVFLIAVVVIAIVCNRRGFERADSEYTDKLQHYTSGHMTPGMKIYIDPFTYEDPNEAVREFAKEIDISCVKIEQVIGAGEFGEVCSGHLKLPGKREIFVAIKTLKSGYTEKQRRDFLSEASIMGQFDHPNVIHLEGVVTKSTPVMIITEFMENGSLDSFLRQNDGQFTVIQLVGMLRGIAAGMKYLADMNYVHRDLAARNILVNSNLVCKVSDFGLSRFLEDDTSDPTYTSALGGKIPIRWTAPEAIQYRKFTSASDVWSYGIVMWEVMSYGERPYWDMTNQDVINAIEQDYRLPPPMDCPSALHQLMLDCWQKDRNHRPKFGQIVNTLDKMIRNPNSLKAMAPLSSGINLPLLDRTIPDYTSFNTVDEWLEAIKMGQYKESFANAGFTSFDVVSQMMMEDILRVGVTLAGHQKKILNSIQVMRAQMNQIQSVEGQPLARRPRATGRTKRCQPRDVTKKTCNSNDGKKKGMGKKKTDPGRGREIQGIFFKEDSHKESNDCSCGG

340 wild-type kinases [3] = target: T3, 340 wild-type kinases (Homo sapiens, UniProt Q5VT25)
T3 construct: purchased Reaction Biology Europe
T3 sequence (Q5VT25 whole entry): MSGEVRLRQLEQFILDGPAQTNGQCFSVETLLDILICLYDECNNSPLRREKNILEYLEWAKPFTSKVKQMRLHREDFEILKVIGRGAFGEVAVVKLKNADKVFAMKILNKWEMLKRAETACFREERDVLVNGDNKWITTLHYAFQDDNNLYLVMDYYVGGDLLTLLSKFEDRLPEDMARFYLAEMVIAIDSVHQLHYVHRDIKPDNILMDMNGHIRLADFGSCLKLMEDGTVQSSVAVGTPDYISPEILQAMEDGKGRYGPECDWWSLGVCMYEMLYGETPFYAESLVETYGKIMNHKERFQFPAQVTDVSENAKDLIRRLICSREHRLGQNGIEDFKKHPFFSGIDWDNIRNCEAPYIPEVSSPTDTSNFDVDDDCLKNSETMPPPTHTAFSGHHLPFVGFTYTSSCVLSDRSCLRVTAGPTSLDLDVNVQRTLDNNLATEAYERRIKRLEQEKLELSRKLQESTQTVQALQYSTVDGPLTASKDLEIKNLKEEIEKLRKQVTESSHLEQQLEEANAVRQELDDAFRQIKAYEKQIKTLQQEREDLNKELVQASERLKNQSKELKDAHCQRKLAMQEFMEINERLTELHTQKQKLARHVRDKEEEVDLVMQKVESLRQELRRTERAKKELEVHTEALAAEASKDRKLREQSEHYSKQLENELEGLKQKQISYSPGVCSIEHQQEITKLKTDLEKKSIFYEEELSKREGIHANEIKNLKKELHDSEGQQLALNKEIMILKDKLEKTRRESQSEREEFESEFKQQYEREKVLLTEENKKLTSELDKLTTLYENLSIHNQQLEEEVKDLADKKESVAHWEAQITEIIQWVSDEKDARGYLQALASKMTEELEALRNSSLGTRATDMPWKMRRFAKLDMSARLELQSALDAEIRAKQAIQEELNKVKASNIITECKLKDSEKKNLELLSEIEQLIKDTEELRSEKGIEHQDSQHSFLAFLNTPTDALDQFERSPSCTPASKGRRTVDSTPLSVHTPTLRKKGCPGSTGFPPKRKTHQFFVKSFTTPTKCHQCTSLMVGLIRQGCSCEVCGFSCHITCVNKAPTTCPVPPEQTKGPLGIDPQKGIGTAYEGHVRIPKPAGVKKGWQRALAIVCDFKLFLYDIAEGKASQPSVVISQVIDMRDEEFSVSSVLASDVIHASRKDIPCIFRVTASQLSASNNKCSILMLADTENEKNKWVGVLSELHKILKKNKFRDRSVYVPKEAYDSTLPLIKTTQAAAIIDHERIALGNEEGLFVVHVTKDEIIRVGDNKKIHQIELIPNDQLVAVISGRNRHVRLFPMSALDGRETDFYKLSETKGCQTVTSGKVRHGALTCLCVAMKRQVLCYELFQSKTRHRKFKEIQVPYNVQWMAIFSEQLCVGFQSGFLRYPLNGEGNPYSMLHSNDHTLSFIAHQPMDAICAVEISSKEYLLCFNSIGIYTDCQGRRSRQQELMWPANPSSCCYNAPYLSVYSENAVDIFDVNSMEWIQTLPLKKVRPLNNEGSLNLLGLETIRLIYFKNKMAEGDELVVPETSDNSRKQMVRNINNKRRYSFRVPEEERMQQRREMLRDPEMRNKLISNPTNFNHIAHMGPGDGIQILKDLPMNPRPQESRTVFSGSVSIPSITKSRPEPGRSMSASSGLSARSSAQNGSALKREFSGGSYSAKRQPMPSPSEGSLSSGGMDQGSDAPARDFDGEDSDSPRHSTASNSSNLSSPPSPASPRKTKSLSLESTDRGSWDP

340 wild-type kinases [4] = target: T4, 340 wild-type kinases (Homo sapiens, UniProt Q16816)
T4 construct: purchased Reaction Biology Europe
T4 sequence (Q16816 whole entry): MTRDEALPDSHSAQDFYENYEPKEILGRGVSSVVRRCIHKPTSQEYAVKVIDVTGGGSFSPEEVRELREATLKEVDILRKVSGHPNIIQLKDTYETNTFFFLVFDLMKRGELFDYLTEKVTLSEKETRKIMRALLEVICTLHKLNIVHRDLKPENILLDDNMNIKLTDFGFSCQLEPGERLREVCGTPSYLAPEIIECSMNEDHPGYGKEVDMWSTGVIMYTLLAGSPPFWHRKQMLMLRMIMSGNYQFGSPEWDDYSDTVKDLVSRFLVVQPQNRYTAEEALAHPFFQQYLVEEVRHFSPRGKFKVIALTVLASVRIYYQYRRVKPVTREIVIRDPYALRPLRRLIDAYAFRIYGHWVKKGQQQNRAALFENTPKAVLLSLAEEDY

340 wild-type kinases [5] = target: T5, 340 wild-type kinases (Homo sapiens, UniProt P16591)
T5 construct: purchased Reaction Biology Europe
T5 sequence (P16591 whole entry): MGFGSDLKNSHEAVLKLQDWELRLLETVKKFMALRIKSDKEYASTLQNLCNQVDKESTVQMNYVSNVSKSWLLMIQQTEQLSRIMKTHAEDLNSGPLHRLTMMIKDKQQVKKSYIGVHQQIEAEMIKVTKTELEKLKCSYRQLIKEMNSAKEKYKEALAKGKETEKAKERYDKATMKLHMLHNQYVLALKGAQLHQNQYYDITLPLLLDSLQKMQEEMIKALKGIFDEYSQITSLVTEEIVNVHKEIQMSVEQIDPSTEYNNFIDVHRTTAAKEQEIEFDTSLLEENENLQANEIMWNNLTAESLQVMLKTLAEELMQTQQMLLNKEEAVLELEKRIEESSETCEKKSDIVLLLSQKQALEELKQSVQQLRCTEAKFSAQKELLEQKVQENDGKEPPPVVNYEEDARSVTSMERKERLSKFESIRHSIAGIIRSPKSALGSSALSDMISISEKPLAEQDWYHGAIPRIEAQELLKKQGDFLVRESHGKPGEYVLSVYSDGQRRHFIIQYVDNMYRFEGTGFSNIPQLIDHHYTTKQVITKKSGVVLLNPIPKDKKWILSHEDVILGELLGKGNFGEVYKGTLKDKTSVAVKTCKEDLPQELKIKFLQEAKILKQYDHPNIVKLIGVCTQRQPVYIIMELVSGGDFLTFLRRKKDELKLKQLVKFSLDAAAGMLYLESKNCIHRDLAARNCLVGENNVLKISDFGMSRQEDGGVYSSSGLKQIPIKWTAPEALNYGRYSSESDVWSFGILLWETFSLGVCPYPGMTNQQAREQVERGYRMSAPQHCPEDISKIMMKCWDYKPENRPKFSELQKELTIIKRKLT

340 wild-type kinases [6] = target: T6, 340 wild-type kinases (Homo sapiens, UniProt P42679)
T6 construct: purchased Reaction Biology Europe
T6 sequence (P42679 1-507): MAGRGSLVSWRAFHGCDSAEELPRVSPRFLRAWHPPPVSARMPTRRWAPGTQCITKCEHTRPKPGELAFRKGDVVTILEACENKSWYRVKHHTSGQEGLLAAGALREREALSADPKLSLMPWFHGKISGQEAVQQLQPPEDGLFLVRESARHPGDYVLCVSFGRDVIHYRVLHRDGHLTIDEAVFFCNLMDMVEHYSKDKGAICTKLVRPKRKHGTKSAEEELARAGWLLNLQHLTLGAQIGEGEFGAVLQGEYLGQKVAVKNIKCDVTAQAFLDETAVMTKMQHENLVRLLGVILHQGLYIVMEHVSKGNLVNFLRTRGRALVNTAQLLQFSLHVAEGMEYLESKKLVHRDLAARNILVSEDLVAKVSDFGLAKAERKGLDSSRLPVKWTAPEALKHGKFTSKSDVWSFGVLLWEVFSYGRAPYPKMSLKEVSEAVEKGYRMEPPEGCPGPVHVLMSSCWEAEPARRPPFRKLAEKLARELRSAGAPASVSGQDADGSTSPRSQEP

Q: Which results are given for `CNC(=O)c1ccc2c(c1)C(=O)c1ccc(Nc3ccc(F)c(NC(=O)C4CC4)c3)cc1CC2` [Compound 2015]?
A: remaining activity at 0.2 µM (340 wild-type kinases [1]; 0.2 µM 2015, read-out: SGK2 residual activity): 109%; remaining activity at 1 µM (340 wild-type kinases [1]; 1 µM 2015, read-out: SGK2 residual activity): 104%; remaining activity at 0.2 µM (340 wild-type kinases [1]; SGK2, 0.2 µM, read-out: residual activity): 109%; remaining activity at 1 µM (340 wild-type kinases [1]; SGK2, 1 µM, read-out: residual activity): 104%; remaining activity at 0.2 µM (340 wild-type kinases [2]; 0.2 µM 2015, read-out: EPHB2 residual activity): 97.4%; remaining activity at 1 µM (340 wild-type kinases [2]; 1 µM 2015, read-out: EPHB2 residual activity): 98.5%; remaining activity at 0.2 µM (340 wild-type kinases [2]; EPHB2, 0.2 µM, read-out: residual activity): 97.4%; remaining activity at 1 µM (340 wild-type kinases [2]; EPHB2, 1 µM, read-out: residual activity): 98.5%; remaining activity at 0.2 µM (340 wild-type kinases [3]; 0.2 µM 2015, read-out: CDC42BPA residual activity): 118%; remaining activity at 1 µM (340 wild-type kinases [3]; 1 µM 2015, read-out: CDC42BPA residual activity): 112%; remaining activity at 0.2 µM (340 wild-type kinases [3]; CDC42BPA, 0.2 µM, read-out: residual activity): 118%; remaining activity at 1 µM (340 wild-type kinases [3]; CDC42BPA, 1 µM, read-out: residual activity): 112%; remaining activity at 0.2 µM (340 wild-type kinases [4]; 0.2 µM 2015, read-out: PHKG1 residual activity): 90.9%; remaining activity at 1 µM (340 wild-type kinases [4]; 1 µM 2015, read-out: PHKG1 residual activity): 102%; remaining activity at 0.2 µM (340 wild-type kinases [4]; PHKG1, 0.2 µM, read-out: residual activity): 90.9%; remaining activity at 1 µM (340 wild-type kinases [4]; PHKG1, 1 µM, read-out: residual activity): 102%; remaining activity at 0.2 µM (340 wild-type kinases [5]; 0.2 µM 2015, read-out: FER residual activity): 125%; remaining activity at 1 µM (340 wild-type kinases [5]; 1 µM 2015, read-out: FER residual activity): 102%; remaining activity at 0.2 µM (340 wild-type kinases [5]; FER, 0.2 µM, read-out: residual activity): 125%; remaining activity at 1 µM (340 wild-type kinases [5]; FER, 1 µM, read-out: residual activity): 102%; remaining activity at 0.2 µM (340 wild-type kinases [6]; 0.2 µM 2015, read-out: MATK residual activity): 112%; remaining activity at 1 µM (340 wild-type kinases [6]; 1 µM 2015, read-out: MATK residual activity): 100%; remaining activity at 0.2 µM (340 wild-type kinases [6]; MATK, 0.2 µM, read-out: residual activity): 112%; remaining activity at 1 µM (340 wild-type kinases [6]; MATK, 1 µM, read-out: residual activity): 100%
